In US9688765B2, “Methods using RANK/RANKL antagonist antibodies for treating pain” (Antecip Bioventures II LLC, priority 2014, dated 2017):

Assays:
[1] = tested on: arthritis pain (mechanical hyperalgesia); assay: Rat complete Freund's adjuvant (CFA) model of arthritis pain; assay type: in vivo; details: day 14 post CFA
Experimental: The effect of RANK/RANKL antagonism on arthritis pain was examined in the rat complete Freund's adjuvant (CFA) model of arthritis pain. In this model, injection of 100% complete Freund's adjuvant (CFA) in a 75 μL volume into the left hind paws is followed by a 10-14 day period to allow for the development of arthritis pain. Animals were orally administered zoledronic acid 9 mg/kg (or 54 mg/m^2), or zoledronic acid 60 mg/kg (or 360 mg/m^2) to produce RANK/RANKL antagonism, divided in three equal daily doses on the first three days post CFA injection, or vehicle (control). Drug was dissolved in distilled water and prepared fresh daily. Animals were fasted prior to dosing.
Arthritis pain (mechanical hyperalgesia) in the vehicle and drug-treated animals was evaluated on day 14 post CFA injection using a digital Randall-Selitto device (dRS; IITC Life Sciences, Woodland Hills, Calif.). […] Paw compression threshold was measured by applying increasing pressure to the plantar surface of the hind paw with a dome-shaped tip placed between the 3rd and 4th metatarsus. […]
Reversal of arthritis pain in the ipsilateral (CFA-injected) paw was calculated according to the formula: % reversal=(ipsilateral drug threshold−ipsilateral vehicle threshold)/(contralateral vehicle threshold−ipsilateral vehicle threshold)×100. […]

RANKL expression = details: cultured bone marrow stromal cell line; cited from earlier work
[2] = tested on: complex regional pain syndrome; assay: Treatment of patient suffering from complex regional pain syndrome; assay type: in vivo, human; details: patient one, 60 mg subcutaneously, within 6 months after treatment
Experimental: PROLIA® (denosumab, 60 mg) is administered subcutaneously to a patient suffering from complex regional pain syndrome. […] The injection is repeated every six months.

[3] = tested on: pain associated with osteoarthritis; assay: Treatment of patient suffering from pain associated with osteoarthritis; assay type: in vivo, human; details: patient one, 60 mg subcutaneously, within 6 months after treatment
Experimental: PROLIA® (denosumab, 60 mg) is administered subcutaneously to a patient suffering from pain associated with osteoarthritis. […] The injection is repeated every six months. IMBRUVICA® (ibrutinib, 420 mg taken orally once daily (three 140 mg capsules once daily)) is administered to a patient suffering from pain associated with osteoarthritis. […] IMBRUVICA® (ibrutinib, 560 mg taken orally once daily, (four 140 mg capsules once daily)) is administered to a patient suffering from pain associated with osteoarthritis.

neuropathic pain = assay: Treatment of patient suffering from neuropathic pain; assay type: in vivo, human; details: patient one, 60 mg subcutaneously, within 6 months after treatment
Experimental: PROLIA® (denosumab, 60 mg) is administered subcutaneously to a patient suffering from neuropathic pain. […] The injection is repeated every six months.

low back pain = assay: Treatment of patient suffering from low back pain; assay type: in vivo, human; details: patient two, 60 mg subcutaneously, within 6 months after treatment
Experimental: PROLIA® (denosumab, 60 mg) is administered subcutaneously to a patient suffering from low back pain. […] The injection is repeated every six months. IMBRUVICA® (ibrutinib, 420 mg taken orally once daily (three 140 mg capsules once daily)) is administered to a patient suffering from low back pain. […] IMBRUVICA® (ibrutinib, 560 mg taken orally once daily, (four 140 mg capsules once daily)) is administered to a patient suffering from low back pain.

[4] = tested on: pain associated with arthritis; assay: Treatment of patient suffering from pain associated with arthritis; assay type: in vivo, human; details: patient two, 60 mg subcutaneously, within 6 months after treatment
Experimental: PROLIA® (denosumab, 60 mg) is administered subcutaneously to a patient suffering from pain associated with arthritis. […] IMBRUVICA® (ibrutinib, 420 mg taken orally once daily (three 140 mg capsules once daily)) is administered to a patient suffering from pain associated with arthritis. […] IMBRUVICA® (ibrutinib, 560 mg taken orally once daily, (four 140 mg capsules once daily)) is administered to a patient suffering from pain associated with arthritis.

O=P(O)(O)C(O)(Cn1ccnc1)P(=O)(O)O [zoledronic acid]
reversal of arthritis pain ([1]; oral 9 mg/kg (54 mg/m^2) total in three daily doses): 33%
reversal of arthritis pain ([1]; oral 60 mg/kg (360 mg/m^2) total in three daily doses): 54%

O=P(O)(O)C(O)(Cc1cnc2ccccn12)P(=O)(O)O [Minodronic acid, minodronic acid]
RANKL expression (RANKL expression): inhibit[] RANKL expression

denosumab [PROLIA]
pain experienced by patient [2]: less pain
pain experienced by patient [3]: less pain
pain experienced by patient (neuropathic pain): less pain
pain experienced by patient (low back pain): less pain
pain experienced by patient [4]: less pain
